The target in test [1] is recombinant FLT1 active protein (Homo sapiens, UniProt P17948). Kind of test: In vitro filter assay for FLT1 kinase activity. The class given is biochemical. As to conditions: 30 min preincubation at room temperature, kinase reaction 20 min at 30° C., 100 μM ATP, 250 μM IGF-1Rtide, triplicate. The procedure:
The inhibition of FLT1 by compounds according to Formula I was assessed by employing an in vitro filter assay for FLT1.
Compounds 1-15 were prepared as 10 mmol stock solutions in DMSO. Curcumin was also prepared as a 10 mmol stock solution for testing in the FLT1 assay. Five units of recombinant FLT1 active protein was incubated with different concentrations of each compound in a 15 μl reaction mixture (50 mM HEPES, 10 mM MgCl2, 1 mM EDTA, 2 mM Dithiothreitol 0.01% NP-40 pH 7.5) for 30 minutes at room temperature (25° C). Kinase reactions were performed for 20 minutes at 30° C. in a volume of 20 μl (15 μl enzyme+compound of Formula I, 2 μl 1 mM ATP (100 μM final concentration), 2 μl of γ 32^pATP (40 μci final concentration) and 250 μM of IGF-1Rtide. 10 μl aliquots of the kinase reaction were spotted onto the center of a filter (2 cm×2 cm P81 phosphocellulose paper square). After 30 seconds, the filters were washed with 0.75% phosphoric acid (3×5 minutes) and once with acetone (5 minutes). The wet filters were transferred into a scintillation vial containing scintillation cocktail ^32P (5 mL). Radioactivity was determined using a scintillation counter. Control analyses were performed with DMSO stock solutions containing no compound. Binding values were corrected for non-specific binding by performing duplicate assays in the absence of FLT1 enzyme and subtracting the non-specific binding values from the values obtained in the presence of FLT1. Counts per minute (CPM) of aliquots containing a compound of Formula I were compared with CPM of control samples. The kinase activity is expressed in percent of the maximal kinase activity. […] All assays were carried out in triplicate.

For test [2], the system named is androgen receptor negative prostate (DU145) cell line. Description: Effect on growth of human tumor cells in culture (viable cells, Trypan blue exclusion). The class given is cell-based. Particulars: five concentrations (1-100 μM range), read from dose response curve. The procedure: The effect of compounds according to Formula I on the growth of human tumor cells in culture was evaluated using the androgen receptor negative prostate (DU145) cell line. The cell culture was maintained at 37° C. in a humidified atmosphere of 5% CO2.
Cells were treated with compounds according to Formula I at five different concentrations (1-100 μM range) for each compound. For comparison, the cells were treated with curcumin at the same concentrations. The dose response was established by determining the number of viable cells after 96 h of continuous treatment against each of the different test concentrations of each compound. The determination of viable cells was done by the Trypan blue exclusion method. Activity for each compound at each concentration is reported as a percentage of cells that remain viable.
The GI50 values were determined by direct extrapolation from each dose response curve.

Where [3] appears, read: Homo sapiens, DU-145, 96 h continuous treatment.

Chain of recombinant FLT1 active protein (P17948 27-1338): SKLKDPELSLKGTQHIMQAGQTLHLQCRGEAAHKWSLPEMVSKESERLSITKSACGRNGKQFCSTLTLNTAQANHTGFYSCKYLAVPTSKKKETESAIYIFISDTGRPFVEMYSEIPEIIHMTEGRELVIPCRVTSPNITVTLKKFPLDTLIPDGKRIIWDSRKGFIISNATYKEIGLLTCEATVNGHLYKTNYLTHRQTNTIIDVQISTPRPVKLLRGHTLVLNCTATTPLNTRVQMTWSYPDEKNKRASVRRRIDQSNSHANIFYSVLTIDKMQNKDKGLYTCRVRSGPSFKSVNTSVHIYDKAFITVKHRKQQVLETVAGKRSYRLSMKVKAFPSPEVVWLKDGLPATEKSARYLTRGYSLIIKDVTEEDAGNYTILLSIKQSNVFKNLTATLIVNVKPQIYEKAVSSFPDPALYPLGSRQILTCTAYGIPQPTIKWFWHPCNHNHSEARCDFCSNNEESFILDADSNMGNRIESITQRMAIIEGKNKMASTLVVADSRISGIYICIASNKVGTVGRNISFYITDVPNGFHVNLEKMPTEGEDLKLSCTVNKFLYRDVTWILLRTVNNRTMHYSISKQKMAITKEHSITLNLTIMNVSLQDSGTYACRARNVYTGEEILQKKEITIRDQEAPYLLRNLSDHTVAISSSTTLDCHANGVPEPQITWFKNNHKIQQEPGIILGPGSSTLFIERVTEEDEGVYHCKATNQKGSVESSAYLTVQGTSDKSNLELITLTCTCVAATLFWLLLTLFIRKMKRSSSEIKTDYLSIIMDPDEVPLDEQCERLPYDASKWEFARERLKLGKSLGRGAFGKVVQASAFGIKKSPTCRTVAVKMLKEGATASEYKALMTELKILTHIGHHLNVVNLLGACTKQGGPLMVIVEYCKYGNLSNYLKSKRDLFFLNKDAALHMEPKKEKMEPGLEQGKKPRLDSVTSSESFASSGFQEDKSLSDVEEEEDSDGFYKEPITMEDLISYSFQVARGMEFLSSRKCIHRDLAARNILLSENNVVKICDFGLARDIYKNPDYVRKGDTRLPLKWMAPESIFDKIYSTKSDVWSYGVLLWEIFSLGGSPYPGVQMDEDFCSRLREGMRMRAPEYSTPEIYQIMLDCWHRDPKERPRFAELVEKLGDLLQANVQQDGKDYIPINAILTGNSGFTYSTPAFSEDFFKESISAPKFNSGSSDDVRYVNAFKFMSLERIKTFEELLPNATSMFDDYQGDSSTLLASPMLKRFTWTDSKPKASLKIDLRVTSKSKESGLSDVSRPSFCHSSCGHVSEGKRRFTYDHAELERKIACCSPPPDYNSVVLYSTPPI

For `O=S(=O)(/C=C/c1ccc(I)cc1)CS(=O)(=O)/C=C/c1ccc(I)cc1` [Example 10, bis((E)-4-Iodostyrylsulfonyl)methane], in test [1], the half-inhibitory concentration (IC50) (in general, the point on the concentration scale where inhibition reaches its midpoint) is above 10 µM.
As for `O=S(=O)(/C=C/c1ccc(F)cc1)CS(=O)(=O)/C=C/c1ccc(F)cc1` [Example 11, bis((E)-4-Fluorostyrylsulfonyl)methane], the GI50 (commonly the concentration giving 50% growth inhibition) in test [2] (setting [3]) is below 10 µM. Further, the IC50 in test [1] was above 100 µM.
Regarding `O=S(=O)(/C=C/c1ccc(F)cc1F)CS(=O)(=O)/C=C/c1ccc(F)cc1F` [Example 4, bis((E)-2,4-Difluorostyrylsulfonyl)methane], in test [2] (setting [3]), the 50% growth inhibitory concentration (GI50) is below 10 µM. In addition, the IC50 in test [1] came out at 2.23 µM.
For `COc1cc(/C=C/C(=O)CC(=O)/C=C/c2ccc(O)c(OC)c2)ccc1O` [curcumin, reference compound], the concentration for 50% growth inhibition (GI50) in test [2] (setting [3]) was 35 µM. Further, in test [1], the half-maximal inhibitory concentration (IC50) turned out to be 35 µM.
Take `O=S(=O)(/C=C/c1ccc(Br)cc1)CS(=O)(=O)/C=C/c1ccc(Br)cc1` [Example 7, bis((E)-4-Bromostyrylsulfonyl)methane]: in test [2] (setting [3]), the 50% growth inhibitory concentration (GI50) was below 10 µM. Besides, the concentration for half-maximal inhibition (IC50) in test [1] is 0.316 µM.
Take `O=S(=O)(/C=C/c1ccc(Cl)cc1)CS(=O)(=O)/C=C/c1ccc(Cl)cc1` [Example 6, bis((E)-4-Chlorostyrylsulfonyl)methane]: the concentration for 50% growth inhibition (GI50) in test [2] (setting [3]) is 10 to 25 µM. For the same compound, in test [1], the half-inhibitory concentration (IC50) was found to be 51 µM.
For the compound `COc1cc(/C=C/S(=O)(=O)CS(=O)(=O)/C=C/c2ccc(O)c(OC)c2)ccc1O` [Example 1, 4-((1E)-2-(((E)-4-Hydroxy-3-methoxystyrylsulfonyl)methylsulfonyl)vinyl)-2-methoxyphenol], the GI50 in test [2] (setting [3]) was below 10 µM. Also, the IC50 in test [1] was 3.89 µM.
The compound `COc1cc(/C=C/S(=O)(=O)CS(=O)(=O)/C=C/c2cc(OC)c(OC)c(OC)c2)cc(OC)c1OC` [Example 14, bis((E)-3,4,5-Trimethoxystyrylsulfonyl)methane] yielded a GI50 in test [2] (setting [3]) of 7.5 µM. The concentration for half-maximal inhibition (IC50) in test [1] was above 10 µM.
With `O=S(=O)(/C=C/c1ccccc1)CS(=O)(=O)/C=C/c1ccccc1` [Example 9, bis((E)-Styrylsulfonyl)methane], the GI50 in test [2] (setting [3]) lay in the range of 10 to 25 µM. In test [1], the IC50 was above 100 µM.
Take `COc1cc(OC)c(/C=C/S(=O)(=O)CS(=O)(=O)/C=C/c2c(OC)cc(OC)cc2OC)c(OC)c1` [Example 2, bis((E)-2,4,6-Trimethoxystyrylsulfonyl)methane]: in test [2] (setting [3]), the GI50 is 75 µM. In addition, the 50% inhibitory concentration (IC50) in test [1] amounted to 0.281 µM.
Take “4-((1E)-2-(((E)-4-hydroxy-2,6-dimethoxystyrylsulfonyl)methylsulfonyl)vinyl)-3,5-dimethoxyphenol. [Example 15]”: the GI50 in test [2] (96 h continuous treatment) is below 1 µM. Besides, the IC50 in test [1] was 0.077 µM.
As for “bis((E)-Perfluorostyrylsulfonyl)methane [Example 13]”, the GI50 in test [2] (96 h continuous treatment) is below 2.5 µM. In addition, in test [1], the IC50 stood at 0.416 µM.
In the case of `N#Cc1ccc(/C=C/S(=O)(=O)CS(=O)(=O)/C=C/c2ccc(C#N)cc2F)c(F)c1` [Example 3, 4-((1E)-2-(((E)-2-Fluoro-4-cyanostyrylsulfonyl)methylsulfonyl)vinyl)-3-fluorobenzonitrile], in test [2] (setting [3]), the GI50 is 25 to 50 µM. Besides, the half-inhibitory concentration (IC50) in test [1] is 0.162 µM.
`O=S(=O)(/C=C/c1ccsc1)CS(=O)(=O)/C=C/c1ccsc1` [Example 8, bis((E)-2-(Thiophen-3-yl)vinylsulfonyl)methane]: in test [2] (setting [3]), the GI50 is below 10 µM. For the same compound, the IC50 in test [1] amounted to 11.2 µM.
Taken in the same sequence, the figures for `COc1cccc(OC)c1/C=C/S(=O)(=O)CS(=O)(=O)/C=C/c1c(OC)cccc1OC` [Example 5, bis((E)-2,6-Dimethoxystyrylsulfonyl)methane] were 25 to 50 µM and 12.8 µM.

The values above are taken from patent US8058313B2, “Alpha, beta-unsaturated sulfones, sulfoxides, sulfonimides, sulfinimides, acylsulfonamides and acylsulfinamides and therapeutic uses thereof” (Temple University—Of The Commonwealth System of Higher …, priority 2004, dated 2011).
